Reference: publication PMC9186362, “Design and biological evaluation of substituted 5,7-dihydro-6H-indolo[2,3-c]quinolin-6-one as novel selective Haspin inhibitors” (Journal of Enzyme Inhibition and Medicinal Chemistry, 2022)

What was measured:
HCT116 spheroids = assay: 3D spheroid viability; format: cell-based, human; conditions: 2.5, 5 and 10 µM single dose, 7 days
Protocol: (§1) U-2 OS cells were seeded at 5000 cells per well and HCT116 at 1500 cells per well, in 96-well black ULA plates (Ultra Low Adherence, Corning). After centrifugation at 200 g for 10 min, spheroids were incubated at 37 °C for 3 days in order to reach 400 µm in diameter. Compounds were then added at a single dose (2.5, 5, or 10 μM) and cell viability was measured after 7 days using the CellTiter-Glo® 3D Cell Viability Assay (Promega) following the manufacturer's protocol. Luminescence was measured using an EnVision® plate reader (Perkin Elmer).

U-2 OS spheroids = assay: 3D spheroid viability; format: cell-based, human; conditions: 2.5, 5 and 10 µM single dose, 7 days
Protocol: as §1

panel of 486 kinases = assay: SelectScreen Whole Panel selectivity profile; format: biochemical; conditions: 1 µM
Protocol: (§2) We further evaluated the selectivity profile of compound 55 on a larger panel of kinases (SelectScreen Whole Panel, Life Technologies). The inhibition profile of 55, evaluated at 1 μM, is depicted on a dendrogram on Figure 3 where kinases inhibited by a minimum of 80% are shown. A full list of the kinases tested is shown on Table S1 in supplementary information.

CAMK1 (CaMK1) = molecular target: T1, CAMK1 (CaMK1) (Homo sapiens, UniProt Q14012); assay: SelectScreen Adapta; format: biochemical; conditions: ATP 10 µM, read-out: Percentage of inhibition
T1 construct: purchased Life Technologies (SelectScreen Whole Panel service)
T1 sequence (Q14012 whole entry): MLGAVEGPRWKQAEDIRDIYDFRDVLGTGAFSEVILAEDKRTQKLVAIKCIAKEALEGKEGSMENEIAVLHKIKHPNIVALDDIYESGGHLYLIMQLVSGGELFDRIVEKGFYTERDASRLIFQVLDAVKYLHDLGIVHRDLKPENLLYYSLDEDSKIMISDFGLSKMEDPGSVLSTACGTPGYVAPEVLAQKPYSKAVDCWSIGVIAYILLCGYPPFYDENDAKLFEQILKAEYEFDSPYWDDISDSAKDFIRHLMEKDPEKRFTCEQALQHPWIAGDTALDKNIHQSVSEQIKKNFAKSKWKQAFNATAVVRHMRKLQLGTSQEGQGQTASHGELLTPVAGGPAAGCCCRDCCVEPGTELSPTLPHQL
Protocol: as §2

CDK4/cyclin D1 = molecular target: T2, CDK4/cyclin D1 (Homo sapiens, UniProt P11802); assay: SelectScreen Adapta; format: biochemical; conditions: ATP 10 µM, read-out: Percentage of inhibition
T2 construct: purchased Life Technologies (SelectScreen Whole Panel service)
Protocol: as §2

CDK4/cyclin D3 = molecular target: T3, CDK4/cyclin D3 (Homo sapiens, UniProt P11802); assay: SelectScreen Adapta; format: biochemical; conditions: ATP 10 µM, read-out: Percentage of inhibition
T3 construct: purchased Life Technologies
Protocol: as §2

CDK6/cyclin D1 = CDK6/cyclin D1 (Homo sapiens, UniProt Q00534); assay: SelectScreen Adapta; format: biochemical; conditions: ATP 10 µM, read-out: Percentage of inhibition
Protocol: as §2

CDK9/cyclin T1 = CDK9/cyclin T1 (Homo sapiens, UniProt P50750); assay: SelectScreen Adapta; format: biochemical; conditions: ATP Km, read-out: Percentage of inhibition
CDK9/cyclin T1, sequence (P50750 whole entry): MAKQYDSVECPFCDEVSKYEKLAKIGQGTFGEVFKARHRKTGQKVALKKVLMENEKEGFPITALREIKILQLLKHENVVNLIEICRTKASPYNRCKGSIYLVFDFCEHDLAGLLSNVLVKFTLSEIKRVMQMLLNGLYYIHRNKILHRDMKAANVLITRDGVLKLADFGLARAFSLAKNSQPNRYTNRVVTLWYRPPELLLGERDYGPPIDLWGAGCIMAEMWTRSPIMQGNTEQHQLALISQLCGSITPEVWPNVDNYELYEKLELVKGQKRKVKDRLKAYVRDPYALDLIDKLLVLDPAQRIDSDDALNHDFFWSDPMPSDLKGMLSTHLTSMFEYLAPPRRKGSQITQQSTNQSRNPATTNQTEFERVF
CDK9/cyclin T1, sequence (O60563 whole entry partner): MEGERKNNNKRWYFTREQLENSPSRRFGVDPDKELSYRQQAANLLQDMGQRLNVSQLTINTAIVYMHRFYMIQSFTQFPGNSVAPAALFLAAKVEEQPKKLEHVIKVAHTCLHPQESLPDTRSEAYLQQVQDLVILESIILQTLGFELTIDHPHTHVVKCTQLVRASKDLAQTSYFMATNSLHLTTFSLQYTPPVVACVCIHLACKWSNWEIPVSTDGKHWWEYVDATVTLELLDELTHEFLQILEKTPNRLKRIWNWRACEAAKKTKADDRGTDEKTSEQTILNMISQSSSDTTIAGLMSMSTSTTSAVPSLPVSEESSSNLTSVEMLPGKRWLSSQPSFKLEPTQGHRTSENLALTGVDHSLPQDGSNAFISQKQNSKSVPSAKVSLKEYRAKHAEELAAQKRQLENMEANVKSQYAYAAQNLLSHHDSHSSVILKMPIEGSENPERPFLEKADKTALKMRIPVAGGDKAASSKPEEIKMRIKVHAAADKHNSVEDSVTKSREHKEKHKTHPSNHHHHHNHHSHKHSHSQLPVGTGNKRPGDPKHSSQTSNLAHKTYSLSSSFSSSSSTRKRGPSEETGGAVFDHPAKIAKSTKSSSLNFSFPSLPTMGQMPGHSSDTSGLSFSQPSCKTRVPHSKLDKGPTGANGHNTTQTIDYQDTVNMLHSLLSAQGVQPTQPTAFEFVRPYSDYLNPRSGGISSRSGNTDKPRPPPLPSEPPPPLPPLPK
Protocol: as §2

CHUK (IKK alpha) = molecular target: T4, CHUK (IKK alpha) (Homo sapiens, UniProt O15111); assay: SelectScreen Adapta; format: biochemical; conditions: ATP Km, read-out: Percentage of inhibition
T4 construct: purchased Life Technologies
Protocol: as §2

DAPK1 = DAPK1 (Homo sapiens, UniProt P53355); assay: SelectScreen Adapta; format: biochemical; conditions: ATP Km, read-out: Percentage of inhibition
Protocol: as §2

GSG2 (Haspin) = molecular target: T5, GSG2 (Haspin) (Homo sapiens, UniProt Q8TF76); assay: SelectScreen Adapta; format: biochemical; conditions: ATP Km, read-out: Percentage of inhibition
T5 construct: purchased Life Technologies (SelectScreen Whole Panel)
Protocol: as §2

LRRK2 = molecular target: T6, LRRK2 (Homo sapiens, UniProt Q5S007); assay: SelectScreen Adapta; format: biochemical; conditions: ATP Km, read-out: Percentage of inhibition
T6 construct: purchased Life Technologies (SelectScreen service)
T6 sequence (Q5S007 970-2527 limits assumed): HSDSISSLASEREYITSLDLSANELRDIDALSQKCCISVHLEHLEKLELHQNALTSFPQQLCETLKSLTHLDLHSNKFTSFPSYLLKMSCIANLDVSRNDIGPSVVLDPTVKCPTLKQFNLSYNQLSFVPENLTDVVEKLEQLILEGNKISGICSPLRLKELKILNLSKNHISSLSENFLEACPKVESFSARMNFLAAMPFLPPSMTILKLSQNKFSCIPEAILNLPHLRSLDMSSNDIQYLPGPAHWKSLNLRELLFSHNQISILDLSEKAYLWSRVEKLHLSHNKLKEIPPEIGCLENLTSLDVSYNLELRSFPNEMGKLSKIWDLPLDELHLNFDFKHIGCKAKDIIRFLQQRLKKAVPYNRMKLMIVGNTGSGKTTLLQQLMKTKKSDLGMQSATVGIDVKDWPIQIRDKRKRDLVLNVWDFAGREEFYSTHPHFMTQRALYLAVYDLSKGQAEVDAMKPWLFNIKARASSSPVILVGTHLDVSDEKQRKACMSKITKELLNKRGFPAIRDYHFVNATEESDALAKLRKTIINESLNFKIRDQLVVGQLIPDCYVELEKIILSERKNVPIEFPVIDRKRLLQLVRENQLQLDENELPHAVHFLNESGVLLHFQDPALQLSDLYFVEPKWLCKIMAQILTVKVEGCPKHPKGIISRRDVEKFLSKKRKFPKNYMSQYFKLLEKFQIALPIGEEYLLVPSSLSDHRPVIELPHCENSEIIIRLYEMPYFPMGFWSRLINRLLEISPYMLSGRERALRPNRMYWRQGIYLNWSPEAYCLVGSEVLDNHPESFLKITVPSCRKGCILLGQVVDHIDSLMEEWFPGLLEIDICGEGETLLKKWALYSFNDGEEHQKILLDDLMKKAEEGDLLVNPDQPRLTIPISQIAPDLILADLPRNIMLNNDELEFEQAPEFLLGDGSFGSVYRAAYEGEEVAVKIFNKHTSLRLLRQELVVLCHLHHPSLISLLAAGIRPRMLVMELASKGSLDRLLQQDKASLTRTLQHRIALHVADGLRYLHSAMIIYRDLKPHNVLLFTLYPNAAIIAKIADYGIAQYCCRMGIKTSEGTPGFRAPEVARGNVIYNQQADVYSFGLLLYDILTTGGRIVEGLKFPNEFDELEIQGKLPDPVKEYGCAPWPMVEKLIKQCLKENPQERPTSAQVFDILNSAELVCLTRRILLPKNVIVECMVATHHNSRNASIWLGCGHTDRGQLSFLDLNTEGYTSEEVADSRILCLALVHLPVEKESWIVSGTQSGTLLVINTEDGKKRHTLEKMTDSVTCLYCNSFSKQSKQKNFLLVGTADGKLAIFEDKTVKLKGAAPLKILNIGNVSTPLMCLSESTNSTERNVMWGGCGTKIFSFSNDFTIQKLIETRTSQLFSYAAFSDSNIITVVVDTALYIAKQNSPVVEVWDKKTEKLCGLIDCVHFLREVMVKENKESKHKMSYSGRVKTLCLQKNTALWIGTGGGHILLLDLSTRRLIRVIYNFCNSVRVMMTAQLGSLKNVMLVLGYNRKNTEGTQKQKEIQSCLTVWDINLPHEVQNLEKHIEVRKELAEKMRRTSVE
Protocol: as §2

LRRK2 I2020T = molecular target: T7, LRRK2 I2020T (Homo sapiens, UniProt Q5S007, I2020T); assay: SelectScreen Adapta; format: biochemical; conditions: ATP Km, read-out: Percentage of inhibition
T7 construct: purchased Life Technologies (SelectScreen Whole Panel)
T7 sequence (Q5S007 970-2527 I2020T limits assumed): as the sequence (Q5S007 970-2527 limits assumed) above, with I1051T counted along it
Protocol: as §2

LRRK2 R1441C = molecular target: T8, LRRK2 R1441C (Homo sapiens, UniProt Q5S007, R1441C); assay: SelectScreen Adapta; format: biochemical; conditions: ATP Km, read-out: Percentage of inhibition
T8 construct: purchased Life Technologies
T8 sequence (Q5S007 970-2527 R1441C limits assumed): as the sequence (Q5S007 970-2527 limits assumed) above, with R472C counted along it
Protocol: as §2

NUAK1 (ARK5) = NUAK1 (ARK5) (Homo sapiens, UniProt O60285); assay: SelectScreen Adapta; format: biochemical; conditions: ATP Km, read-out: Percentage of inhibition
Protocol: as §2

PI4K2A (PI4K2 alpha) = molecular target: T9, PI4K2A (PI4K2 alpha) (Homo sapiens, UniProt Q9BTU6); assay: SelectScreen Adapta; format: biochemical; conditions: ATP Km, read-out: Percentage of inhibition
T9 construct: purchased Life Technologies (SelectScreen Whole Panel)
Protocol: as §2

PI4K2B (PI4K2 beta) = molecular target: T10, PI4K2B (PI4K2 beta) (Homo sapiens, UniProt Q8TCG2); assay: SelectScreen Adapta; format: biochemical; conditions: ATP Km, read-out: Percentage of inhibition
T10 construct: purchased Life Technologies (SelectScreen Whole Panel)
Protocol: as §2

PI4KA (PI4K alpha) = molecular target: T11, PI4KA (PI4K alpha) (Homo sapiens, UniProt P42356); assay: SelectScreen Adapta; format: biochemical; conditions: ATP 10 µM, read-out: Percentage of inhibition
T11 construct: purchased Life Technologies (SelectScreen Whole Panel)
Protocol: as §2

PI4KB (PI4K beta) = molecular target: T12, PI4KB (PI4K beta) (Homo sapiens, UniProt Q9UBF8); assay: SelectScreen Adapta; format: biochemical; conditions: ATP Km, read-out: Percentage of inhibition
T12 construct: purchased Life Technologies
Protocol: as §2

PIK3C2B = PIK3C2B (Homo sapiens, UniProt O00750); assay: SelectScreen Adapta; format: biochemical; conditions: ATP 10 µM, read-out: Percentage of inhibition
Protocol: as §2

PIK3C2G (PI3K-C2 gamma) = molecular target: T13, PIK3C2G (PI3K-C2 gamma) (Homo sapiens, UniProt O75747); assay: SelectScreen Adapta; format: biochemical; conditions: ATP Km, read-out: Percentage of inhibition
T13 construct: purchased Life Technologies (SelectScreen Whole Panel service)
T13 sequence (O75747 whole entry): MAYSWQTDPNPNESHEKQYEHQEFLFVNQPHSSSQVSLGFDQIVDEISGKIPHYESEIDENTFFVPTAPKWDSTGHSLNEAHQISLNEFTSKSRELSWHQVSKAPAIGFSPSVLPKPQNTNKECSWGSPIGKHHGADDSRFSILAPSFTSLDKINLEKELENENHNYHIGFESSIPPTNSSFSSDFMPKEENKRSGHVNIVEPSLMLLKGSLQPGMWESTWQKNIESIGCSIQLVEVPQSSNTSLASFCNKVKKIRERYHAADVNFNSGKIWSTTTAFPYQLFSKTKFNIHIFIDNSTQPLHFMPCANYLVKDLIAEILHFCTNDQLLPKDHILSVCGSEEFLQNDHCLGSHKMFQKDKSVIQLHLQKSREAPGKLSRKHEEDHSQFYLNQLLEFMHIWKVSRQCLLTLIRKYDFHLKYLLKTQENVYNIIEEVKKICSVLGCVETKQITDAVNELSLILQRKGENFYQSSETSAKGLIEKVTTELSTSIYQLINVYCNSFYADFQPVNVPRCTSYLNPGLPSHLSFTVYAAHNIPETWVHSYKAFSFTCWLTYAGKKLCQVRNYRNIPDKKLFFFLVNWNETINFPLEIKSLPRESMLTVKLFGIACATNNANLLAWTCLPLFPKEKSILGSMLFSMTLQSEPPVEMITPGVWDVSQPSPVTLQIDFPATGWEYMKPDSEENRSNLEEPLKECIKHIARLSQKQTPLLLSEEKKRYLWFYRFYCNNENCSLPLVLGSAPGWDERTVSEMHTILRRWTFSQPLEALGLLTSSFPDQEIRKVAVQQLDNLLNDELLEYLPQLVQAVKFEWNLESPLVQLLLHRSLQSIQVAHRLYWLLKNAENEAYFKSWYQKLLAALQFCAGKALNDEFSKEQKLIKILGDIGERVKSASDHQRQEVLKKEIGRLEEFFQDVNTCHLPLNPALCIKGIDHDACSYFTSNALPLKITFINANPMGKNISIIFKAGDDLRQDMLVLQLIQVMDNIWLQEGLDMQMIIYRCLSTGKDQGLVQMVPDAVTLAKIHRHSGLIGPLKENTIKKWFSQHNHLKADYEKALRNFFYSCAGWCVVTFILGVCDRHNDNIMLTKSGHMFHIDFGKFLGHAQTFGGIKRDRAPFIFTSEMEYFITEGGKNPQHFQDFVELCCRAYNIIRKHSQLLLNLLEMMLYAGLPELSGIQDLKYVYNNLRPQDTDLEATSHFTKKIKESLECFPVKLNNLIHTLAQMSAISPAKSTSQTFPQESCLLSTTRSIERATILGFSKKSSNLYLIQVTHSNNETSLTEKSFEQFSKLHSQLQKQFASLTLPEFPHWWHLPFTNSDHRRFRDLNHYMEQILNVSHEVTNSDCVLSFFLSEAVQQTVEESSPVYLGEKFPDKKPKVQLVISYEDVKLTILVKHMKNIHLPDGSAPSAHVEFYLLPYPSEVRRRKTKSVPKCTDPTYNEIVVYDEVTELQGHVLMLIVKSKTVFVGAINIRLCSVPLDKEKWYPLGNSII
Protocol: as §2

PIK3C3 (hVPS34) = molecular target: T14, PIK3C3 (hVPS34) (Homo sapiens, UniProt Q8NEB9); assay: SelectScreen Adapta; format: biochemical; conditions: ATP Km, read-out: Percentage of inhibition
T14 construct: purchased Life Technologies (SelectScreen)
Protocol: as §2

[1] = molecular target: PIK3CA E542K/PIK3R1 (p110 alpha E542K/p85 alpha (Homo sapiens, UniProt P42336, E542K)); assay: SelectScreen Adapta; format: biochemical; conditions: ATP 10 µM, read-out: Percentage of inhibition
Protocol: as §2

[2] = molecular target: T15, PIK3CA E545K/PIK3R1 (p110 alpha E545K/p85 alpha) (Homo sapiens, UniProt P42336, E545K); assay: SelectScreen Adapta; format: biochemical; conditions: ATP Km, read-out: Percentage of inhibition
T15 construct: purchased Life Technologies (SelectScreen Whole Panel)
Protocol: as §2

[3] = molecular target: PIK3CA/PIK3R1 (p110 alpha/p85 alpha) (Homo sapiens, UniProt P42336); assay: SelectScreen Adapta; format: biochemical; conditions: ATP Km, read-out: Percentage of inhibition
Protocol: as §2

[4] = molecular target: T16, PIK3CA/PIK3R3 (p110 alpha/p55 gamma) (Homo sapiens, UniProt P42336); assay: SelectScreen Adapta; format: biochemical; conditions: ATP Km, read-out: Percentage of inhibition
T16 construct: purchased Life Technologies (SelectScreen Whole Panel)
Protocol: as §2

[5] = molecular target: T17, PIK3CB/PIK3R1 (p110 beta/p85 alpha) (Homo sapiens, UniProt P42338); assay: SelectScreen Adapta; format: biochemical; conditions: ATP Km, read-out: Percentage of inhibition
T17 construct: purchased Life Technologies (SelectScreen)
Protocol: as §2

[6] = molecular target: T18, PIK3CD/PIK3R1 (p110 delta/p85 alpha) (Homo sapiens, UniProt O00329); assay: SelectScreen Adapta; format: biochemical; conditions: ATP Km, read-out: Percentage of inhibition
T18 construct: purchased Life Technologies (SelectScreen Whole Panel service)
Protocol: as §2

PIP4K2A = PIP4K2A (Homo sapiens, UniProt P48426); assay: SelectScreen Adapta; format: biochemical; conditions: ATP 10 µM, read-out: Percentage of inhibition
Protocol: as §2

PIP5K1A = molecular target: T19, PIP5K1A (Homo sapiens, UniProt Q99755); assay: SelectScreen Adapta; format: biochemical; conditions: ATP 10 µM, read-out: Percentage of inhibition
T19 construct: purchased Life Technologies (SelectScreen service)
Protocol: as §2

SPHK1 = molecular target: T20, SPHK1 (Homo sapiens, UniProt Q9NYA1); assay: SelectScreen Adapta; format: biochemical; conditions: ATP Km, read-out: Percentage of inhibition
T20 construct: purchased Life Technologies (SelectScreen Whole Panel)
T20 sequence (Q9NYA1 whole entry): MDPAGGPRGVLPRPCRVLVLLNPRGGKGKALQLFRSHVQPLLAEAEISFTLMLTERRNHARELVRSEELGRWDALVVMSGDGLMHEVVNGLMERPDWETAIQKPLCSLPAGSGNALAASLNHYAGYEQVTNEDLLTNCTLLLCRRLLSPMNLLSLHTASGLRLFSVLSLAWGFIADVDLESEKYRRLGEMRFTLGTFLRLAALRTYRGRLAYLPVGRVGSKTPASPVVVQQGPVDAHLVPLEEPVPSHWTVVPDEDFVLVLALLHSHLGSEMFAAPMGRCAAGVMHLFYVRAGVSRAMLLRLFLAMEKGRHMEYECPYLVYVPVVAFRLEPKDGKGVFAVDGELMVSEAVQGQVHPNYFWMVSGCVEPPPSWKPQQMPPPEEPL
Protocol: as §2

SPHK2 = molecular target: T21, SPHK2 (Homo sapiens, UniProt Q9NRA0); assay: SelectScreen Adapta; format: biochemical; conditions: ATP 10 µM, read-out: Percentage of inhibition
T21 construct: purchased Life Technologies (SelectScreen Whole Panel)
Protocol: as §2

In the case of COc1ccc2[nH]c3c(=O)[nH]c4ccc(O)cc4c3c2c1 [Compound 55, 2-Hydroxy-10-methoxy-5,7-dihydro-6H-indolo[2,3-c]quinolin-6-one], the “HCT116 spheroid cell viability” value (HCT116 spheroids) was “marked dose-dependent effect”, the “U-2 OS spheroid cell viability” value (U-2 OS spheroids) was “marked dose-dependent effect” and the “Number of the 486 kinases inhibited by >50%” value (panel of 486 kinases) was 159. It also gave an inhibition at 1 µM (CAMK1 (CaMK1)) of 10%, an inhibition at 1 µM (CDK4/cyclin D1) of 12% and an inhibition at 1 µM (CDK4/cyclin D3) of 5%. It also gave an inhibition at 1 µM (CDK6/cyclin D1) of 14%, an inhibition at 1 µM (CDK9/cyclin T1) of 70% and an inhibition at 1 µM (CHUK (IKK alpha)) of 38%. For the same compound, the inhibition at 1 µM (DAPK1) was 57%, the inhibition at 1 µM (GSG2 (Haspin)) was 100% and the inhibition at 1 µM (LRRK2) was 90%. It also gave an inhibition at 1 µM (LRRK2 I2020T) of 100%, an inhibition at 1 µM (LRRK2 R1441C) of 93% and an inhibition at 1 µM (NUAK1 (ARK5)) of 65%. The inhibition at 1 µM (PI4K2A (PI4K2 alpha)) was 1%, the inhibition at 1 µM (PI4K2B (PI4K2 beta)) was 1% and the inhibition at 1 µM (PI4KA (PI4K alpha)) was 0%. The inhibition at 1 µM (PI4KB (PI4K beta)) was 41%, the inhibition at 1 µM (PIK3C2B) was 67% and the inhibition at 1 µM (PIK3C2G (PI3K-C2 gamma)) was 47%. For the same compound, the inhibition at 1 µM (PIK3C3 (hVPS34)) was 9%, the inhibition at 1 µM [1] was 70% and the inhibition at 1 µM [2] was 51%. It also gave an inhibition at 1 µM [3] of 62%, an inhibition at 1 µM [4] of 53% and an inhibition at 1 µM [5] of 9%. It also gave an inhibition at 1 µM [6] of 44%, an inhibition at 1 µM (PIP4K2A) of 13% and an inhibition at 1 µM (PIP5K1A) of 23%. It also gave an inhibition at 1 µM (SPHK1) of -3%, an inhibition at 1 µM (SPHK2) of -1% and a melting point of 202 to 205 °C.
